Laboratory results as given in US9802921B2, “Fluoromethyl-substituted pyrrole carboxamides iv” (Grünenthal GmbH, priority 2013, dated 2017).

The molecules below were run against T1, Human CaV2.2 channels (Homo sapiens, UniProt Q00975) (assay: Fluorescent assay for CaV2.2 channels using potassium depolarization to induce channel opening (FLIPR, Fluo 4)). Conditions: read-out: Activity Category: %-Inhib (CaV2.2) @3 μM @30 mM KCl; 3 μM test compound; 30 mM KCl as printed; HEK293 cells stably expressing human CaV2.2.
T1 construct: expressed in transfected cells
T1 sequence (Q00975 whole entry): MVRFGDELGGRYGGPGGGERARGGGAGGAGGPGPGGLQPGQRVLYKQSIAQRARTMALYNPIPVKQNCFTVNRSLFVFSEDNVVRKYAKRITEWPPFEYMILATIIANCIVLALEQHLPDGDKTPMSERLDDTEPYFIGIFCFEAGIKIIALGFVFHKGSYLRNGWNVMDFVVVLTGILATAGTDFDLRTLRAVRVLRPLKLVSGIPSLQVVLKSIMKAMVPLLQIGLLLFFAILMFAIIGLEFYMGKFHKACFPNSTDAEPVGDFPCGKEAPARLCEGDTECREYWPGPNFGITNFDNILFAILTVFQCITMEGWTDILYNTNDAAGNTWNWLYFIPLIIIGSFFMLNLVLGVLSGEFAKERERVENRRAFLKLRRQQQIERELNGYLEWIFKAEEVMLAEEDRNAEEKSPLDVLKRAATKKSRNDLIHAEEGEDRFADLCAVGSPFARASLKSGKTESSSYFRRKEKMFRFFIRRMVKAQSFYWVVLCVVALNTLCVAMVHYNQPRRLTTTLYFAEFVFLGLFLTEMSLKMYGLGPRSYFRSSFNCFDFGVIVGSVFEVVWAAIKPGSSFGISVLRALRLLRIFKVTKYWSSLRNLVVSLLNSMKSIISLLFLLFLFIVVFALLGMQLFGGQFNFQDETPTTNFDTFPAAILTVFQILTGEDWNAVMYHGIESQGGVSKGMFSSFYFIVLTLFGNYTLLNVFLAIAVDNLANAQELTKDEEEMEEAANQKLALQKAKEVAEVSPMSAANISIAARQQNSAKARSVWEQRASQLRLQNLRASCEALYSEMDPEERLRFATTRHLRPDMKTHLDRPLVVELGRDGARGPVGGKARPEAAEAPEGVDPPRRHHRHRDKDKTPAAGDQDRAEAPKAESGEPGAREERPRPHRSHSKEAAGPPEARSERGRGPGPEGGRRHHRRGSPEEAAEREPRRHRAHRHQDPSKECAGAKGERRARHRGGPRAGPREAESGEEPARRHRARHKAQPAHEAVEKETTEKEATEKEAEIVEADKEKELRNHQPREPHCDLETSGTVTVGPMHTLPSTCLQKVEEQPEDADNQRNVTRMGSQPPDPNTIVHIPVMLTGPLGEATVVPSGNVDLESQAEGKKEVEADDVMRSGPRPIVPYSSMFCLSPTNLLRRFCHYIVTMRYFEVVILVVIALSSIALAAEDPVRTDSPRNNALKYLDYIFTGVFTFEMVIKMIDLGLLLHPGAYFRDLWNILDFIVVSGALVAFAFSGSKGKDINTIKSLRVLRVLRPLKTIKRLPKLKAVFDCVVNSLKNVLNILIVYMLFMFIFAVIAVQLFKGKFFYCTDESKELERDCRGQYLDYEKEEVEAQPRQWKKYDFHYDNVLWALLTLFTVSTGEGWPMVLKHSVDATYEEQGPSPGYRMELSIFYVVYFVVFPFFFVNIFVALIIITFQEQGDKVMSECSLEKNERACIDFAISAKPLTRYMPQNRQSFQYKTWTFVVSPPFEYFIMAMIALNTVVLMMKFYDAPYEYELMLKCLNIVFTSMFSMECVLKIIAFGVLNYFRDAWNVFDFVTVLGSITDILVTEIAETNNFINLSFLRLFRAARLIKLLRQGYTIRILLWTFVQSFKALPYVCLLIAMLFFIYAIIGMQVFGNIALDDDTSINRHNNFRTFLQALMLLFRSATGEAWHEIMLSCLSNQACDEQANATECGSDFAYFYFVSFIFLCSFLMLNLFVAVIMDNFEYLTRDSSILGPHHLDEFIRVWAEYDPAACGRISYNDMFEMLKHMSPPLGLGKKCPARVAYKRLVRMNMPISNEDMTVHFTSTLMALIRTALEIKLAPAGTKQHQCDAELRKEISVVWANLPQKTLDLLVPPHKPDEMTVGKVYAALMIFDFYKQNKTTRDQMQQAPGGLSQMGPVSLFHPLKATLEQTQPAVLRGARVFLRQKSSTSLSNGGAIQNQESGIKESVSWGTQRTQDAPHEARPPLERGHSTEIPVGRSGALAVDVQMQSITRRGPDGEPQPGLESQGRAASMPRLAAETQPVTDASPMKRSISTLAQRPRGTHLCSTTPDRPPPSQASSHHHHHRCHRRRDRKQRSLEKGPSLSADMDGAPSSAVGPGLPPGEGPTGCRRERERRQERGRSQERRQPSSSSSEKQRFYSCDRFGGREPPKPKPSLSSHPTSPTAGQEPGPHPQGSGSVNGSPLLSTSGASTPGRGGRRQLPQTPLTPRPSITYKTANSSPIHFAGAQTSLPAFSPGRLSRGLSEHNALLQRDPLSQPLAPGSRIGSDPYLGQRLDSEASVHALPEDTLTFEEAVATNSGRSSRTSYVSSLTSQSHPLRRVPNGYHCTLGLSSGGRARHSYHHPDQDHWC
T1 sequence (P54289 25-1103, further chain): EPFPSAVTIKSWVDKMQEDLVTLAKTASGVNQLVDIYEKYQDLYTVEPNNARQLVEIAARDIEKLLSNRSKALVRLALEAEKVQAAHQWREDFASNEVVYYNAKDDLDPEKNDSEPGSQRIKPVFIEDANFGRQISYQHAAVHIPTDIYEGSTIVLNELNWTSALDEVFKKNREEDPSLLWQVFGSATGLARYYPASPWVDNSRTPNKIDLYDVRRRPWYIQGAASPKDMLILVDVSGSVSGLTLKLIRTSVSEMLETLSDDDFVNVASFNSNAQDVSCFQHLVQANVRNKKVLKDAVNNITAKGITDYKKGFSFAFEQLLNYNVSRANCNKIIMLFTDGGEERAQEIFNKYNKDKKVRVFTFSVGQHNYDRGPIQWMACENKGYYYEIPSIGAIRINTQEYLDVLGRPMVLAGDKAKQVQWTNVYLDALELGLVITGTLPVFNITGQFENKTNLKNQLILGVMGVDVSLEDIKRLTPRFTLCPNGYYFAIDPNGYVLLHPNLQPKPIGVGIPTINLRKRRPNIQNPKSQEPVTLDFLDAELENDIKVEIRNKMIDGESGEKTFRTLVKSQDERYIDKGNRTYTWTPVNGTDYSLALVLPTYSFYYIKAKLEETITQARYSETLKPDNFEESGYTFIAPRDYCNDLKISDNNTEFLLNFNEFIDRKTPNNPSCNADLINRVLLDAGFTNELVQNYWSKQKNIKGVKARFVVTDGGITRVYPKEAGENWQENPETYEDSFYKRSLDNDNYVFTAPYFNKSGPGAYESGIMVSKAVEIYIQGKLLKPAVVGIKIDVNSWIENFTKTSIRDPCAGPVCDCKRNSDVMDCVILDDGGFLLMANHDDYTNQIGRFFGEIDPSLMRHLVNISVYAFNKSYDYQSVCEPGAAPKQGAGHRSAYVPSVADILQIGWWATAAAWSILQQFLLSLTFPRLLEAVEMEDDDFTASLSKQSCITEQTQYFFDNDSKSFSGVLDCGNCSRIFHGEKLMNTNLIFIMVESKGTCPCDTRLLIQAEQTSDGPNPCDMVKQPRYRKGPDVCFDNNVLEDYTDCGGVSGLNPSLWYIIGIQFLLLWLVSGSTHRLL
T1 sequence (P54284 whole entry, further chain): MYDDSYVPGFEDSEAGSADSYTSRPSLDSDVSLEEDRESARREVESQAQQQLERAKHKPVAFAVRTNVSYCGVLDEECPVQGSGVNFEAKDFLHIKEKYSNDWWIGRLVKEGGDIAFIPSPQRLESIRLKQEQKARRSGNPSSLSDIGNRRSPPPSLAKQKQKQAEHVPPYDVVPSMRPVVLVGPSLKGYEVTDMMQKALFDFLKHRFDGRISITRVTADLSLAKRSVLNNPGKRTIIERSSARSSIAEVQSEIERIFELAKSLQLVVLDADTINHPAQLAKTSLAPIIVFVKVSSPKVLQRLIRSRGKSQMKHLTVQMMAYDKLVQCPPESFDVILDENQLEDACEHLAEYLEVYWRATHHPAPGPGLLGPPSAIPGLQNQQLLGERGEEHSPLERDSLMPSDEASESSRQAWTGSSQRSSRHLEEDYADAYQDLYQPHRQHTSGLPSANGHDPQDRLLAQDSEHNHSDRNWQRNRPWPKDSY
Type: cell-based
Excerpt: In the process, the Ca^2+ influx is quantified in the FLIPR assay with the aid of a Ca^2+-sensitive dye (type Fluo-4, Molecular Probes Europe BV, Leiden, the Netherlands) in a fluorescent imaging plate reader (FLIPR 3, Molecular Devices, Sunnyvale, USA), as described hereinafter.
Human CaV2.2 channels were stably expressed in HEK293 cells together with alpha2-delta and beta subunits of voltage gated calcium channels. In addition, an inwardly rectifying potassium channel (Kir2.3) was stably expressed in these cells to augment control of the cell membrane potential by the concentration of extracellular potassium ions. Raise of the extracellular potassium concentration leads to depolarization of the membrane potential and thus regulates the voltage dependent state of CaV2.2 channels. For preparation, cells were seeded in black poly-D-lysine coated 96-well plates (Becton Dickinson, Biocoat 4640) in 100 μL medium [500 mL DMEM/F-12 plus Glutamax (Invitrogen 31331-093) plus 5.5 mL MEM NEAA 100× (Invitrogen 11140-035) plus 50 mL FBS decomplemented (Invitrogen 10270-106) plus 200 μg/mL Geneticin (Invitrogen 10131-027) plus 50 μg/mL Hygromycin B (Invitrogen 10687-010) plus 2 μg/mL Blasticidin (anti-bl5b Invivo-Gen) plus 0.2 μg/mL Puromycin (A 11138-03)] at a cell density of 30.000 cells per well. Plates were incubated at 37° C. (5% CO2) for 20 to 23 h. On the day of experiment medium was discarded and cells were loaded with Fluo 4 by addition of 100 μL of basic assay buffer (10 mM HEPES, 1 mM KCl, 149 mM NaCl, 0.8 mM CaCl2, 1.7 mM MgCl2, 10 mM Glucose, 0.1% BSA. pH 7.4) containing 2 μM Fluo 4 (Molecular Probes; F-14201), 0.01% pluronic acid (Molecular Probes; P-6866) and 2.5 mM probenecid (Molecular Probes; P36400). Cells were incubated in the dark at 25° C. for 60 min. Then dye containing buffer was discarded and 100 μL basic (1 mM KCl) or alternative (30 mM KCl) assay buffer was added. The alternative assay buffer contained altered concentrations of KCl (30 mM) and NaCl (120 mM) and was used in order to promote the inactivated channel state. After that 25 μL of basic or alternative assay buffer with or without test compound were added and cells were incubated again in the dark at 25° C. for 15 min. Fluorescence intensity was measured on a FLIPR 3 instrument (Molecular Devices Corp., Sunnyvale, Calif.) with excitation at 480 nm and emission at 535 nm. After continuously reading fluorescence for 30 sec, 50 μL of basic assay buffer containing 210 mM KCl (NaCl omitted) were added for depolarization. Peak fluorescent signal intensity was determined and the amplitude of the peak signal, normalized to base line, was used to measure channel inhibition by test compounds.

Q: For `Cc1c(-c2ccc(Cl)cc2)c(C(=O)N(C)CCS(C)(=O)=O)n(Cc2ccc(F)cn2)c1C(F)(F)F` [Example 038, 3-(4-Chlorophenyl)-1-[(5-fluoro-pyridin-2-yl)-methyl]-N,4-dimethyl-N-(2-methylsulfonyl-ethyl)-5-(trifluoromethyl)-1H-pyrrole-2-carboxylic acid amide], which inhibition at 3 µM is on record?
A: > 95%

Q: How did the inhibition at 3 µM turn out when `Cc1cnc(Cn2c(C(=O)N3CCOCC3)c(-c3ccc(Cl)cc3)c(C)c2C(F)(F)F)cn1` [Example 042, [3-(4-Chlorophenyl)-4-methyl-1-[(5-methyl-pyrazin-2-yl)-methyl]-5-(trifluoromethyl)-1H-pyrrol-2-yl]-morpholin-4-yl-methanone] was run?
A: > 95%

Q: Which inhibition at 3 µM does the source give for `Cc1c(-c2ccc(Cl)cc2)c(C(=O)N2CC(F)(F)C2)n(-c2cnccn2)c1C(F)(F)F` [Example 050, [3-(4-Chlorophenyl)-4-methyl-1-pyrazin-2-yl-5-(trifluoromethyl)-1H-pyrrol-2-yl]-(3,3-difluoro-azetidin-1-yl)-methanone] here?
A: 75 to 95%

Q: For `CN(CC(C)(C)C)C(=O)c1c(-c2ccc(Cl)cc2)cc(C(F)(F)F)n1Cc1ccnc(C(F)(F)F)n1` [Example 033, 3-(4-Chlorophenyl)-N-(2,2-dimethyl-propyl)-N-methyl-5-(trifluoromethyl)-1-[[2-(trifluoromethyl)-pyrimidin-4-yl]-methyl]-1H-pyrrole-2-carboxylic acid amide], which inhibition at 3 µM is on record?
A: 40 to 75%

Q: Which inhibition at 3 µM does the source give for `Cc1c(-c2ccc(Cl)cc2)c(C(=O)NC2CC2)n(Cc2ncccn2)c1C(F)(F)F` [Example 048, 3-(4-Chlorophenyl)-N-cyclopropyl-4-methyl-1-(pyrimidin-2-yl-methyl)-5-(trifluoromethyl)-1H-pyrrole-2-carboxylic acid amide] here?
A: 40 to 75%

Q: Which inhibition at 3 µM does the source give for `COc1cccc(Cn2c(C(=O)N3CCOCC3)c(-c3ccc(Cl)cc3)c(C)c2C(F)(F)F)n1` [Example 041, [3-(4-Chlorophenyl)-1-[(6-methoxy-pyridin-2-yl)-methyl]-4-methyl-5-(trifluoromethyl)-1H-pyrrol-2-yl]-morpholin-4-yl-methanone] here?
A: > 95%

Q: `CCc1cc(Cn2c(C(=O)N(C)CCS(C)(=O)=O)c(-c3ccc(Cl)cc3)c(C)c2C(F)(F)F)on1` [Example 001, 3-(4-Chlorophenyl)-1-[(3-ethyl-isoxazol-5-yl)-methyl]-N,4-dimethyl-N-(2-methylsulfonyl-ethyl)-5-(trifluoromethyl)-1H-pyrrole-2-carboxylic acid amide] was tested. Which inhibition at 3 µM did it give?
A: > 95%

Q: Which inhibition at 3 µM does the source give for `CC1(C)CN(C(=O)c2c(-c3ccc(F)cc3)cc(C(F)(F)F)n2Cc2ncccn2)CCO1` [Example 031, (2,2-Dimethyl-morpholin-4-yl)-[3-(4-fluorophenyl)-1-(pyrimidin-2-yl-methyl)-5-(trifluoromethyl)-1H-pyrrol-2-yl]-methanone] here?
A: 40 to 75%

Q: With `CN(CC(C)(C)C)C(=O)c1c(-c2ccc(Cl)cc2)cc(C(F)(F)F)n1Cc1ncccn1` [Example 037, 3-(4-Chlorophenyl)-N-(2,2-dimethyl-propyl)-N-methyl-1-(pyrimidin-2-yl-methyl)-5-(trifluoromethyl)-1H-pyrrole-2-carboxylic acid amide] as the molecule, how does the inhibition at 3 µM read?
A: > 95%

Q: For `Cc1c(-c2ccc(Cl)cc2)c(C(=O)N2CCOCC2)n(CCn2ccccc2=O)c1C(F)(F)F` [Example 055, 1-[2-[3-(4-Chlorophenyl)-4-methyl-2-(morpholine-4-carbonyl)-5-(trifluoromethyl)-1H-pyrrol-1-yl]-ethyl]-1H-pyridin-2-one], which inhibition at 3 µM is on record?
A: 40 to 75%

Q: How did the inhibition at 3 µM turn out when `Cc1c(-c2ccc(Cl)cc2)c(C(=O)N2CCOCC2)n(Cc2cnn(C)c2)c1C(F)(F)F` [Example 023, [3-(4-Chlorophenyl)-4-methyl-1-[(1-methyl-1H-pyrazol-4-yl)-methyl]-5-(trifluoromethyl)-1H-pyrrol-2-yl]-morpholin-4-yl-methanone] was run?
A: > 95%

Q: With `Cc1cnc(Cn2c(C(=O)N3CCOCC3)c(-c3ccc(Cl)cc3)c(C)c2C(F)(F)F)nc1` [Example 045, [3-(4-Chlorophenyl)-4-methyl-1-[(5-methyl-pyrimidin-2-yl)-methyl]-5-(trifluoromethyl)-1H-pyrrol-2-yl]-morpholin-4-yl-methanone] as the molecule, how does the inhibition at 3 µM read?
A: > 95%

Q: `Cc1c(-c2ccc(Cl)cc2F)c(C(=O)N2CCOCC2)n(Cc2ncccn2)c1C(F)(F)F` [Example 062, [3-(4-Chloro-2-fluoro-phenyl)-4-methyl-1-(pyrimidin-2-yl-methyl)-5-(trifluoromethyl)-1H-pyrrol-2-yl]-morpholin-4-yl-methanone] was tested. Which inhibition at 3 µM did it give?
A: > 95%

Q: `CN(CC(C)(C)C)C(=O)c1c(-c2ccc(Cl)cc2)cc(C(F)(F)F)n1Cc1nccn1C` [Example 025, 3-(4-Chlorophenyl)-N-(2,2-dimethyl-propyl)-N-methyl-1-[(1-methyl-1H-imidazole-2-yl)-methyl]-5-(trifluoromethyl)-1H-pyrrole-2-carboxylic acid amide] was tested. Which inhibition at 3 µM did it give?
A: 75 to 95%

Q: How did the inhibition at 3 µM turn out when `Cc1noc(Cn2c(C(=O)N3CCOCC3)c(-c3ccc(Cl)cc3)c(C)c2C(F)(F)F)n1` [Example 018, [3-(4-Chlorophenyl)-4-methyl-1-[(3-methyl-[1,2,4]oxadiazol-5-yl)-methyl]-5-(trifluoromethyl)-1H-pyrrol-2-yl]-morpholin-4-yl-methanone] was run?
A: > 95%

Q: For `Cc1ccnc(Cn2c(C(=O)N3CCOCC3)c(-c3ccc(Cl)cc3)c(C)c2C(F)(F)F)n1` [Example 046, [3-(4-Chlorophenyl)-4-methyl-1-[(4-methyl-pyrimidin-2-yl)-methyl]-5-(trifluoromethyl)-1H-pyrrol-2-yl]-morpholin-4-yl-methanone], which inhibition at 3 µM is on record?
A: > 95%

Q: `CN(CC(C)(C)C)C(=O)c1c(-c2ccc(Cl)cc2)cc(C(F)(F)F)n1Cc1cncn1C` [Example 026, 3-(4-Chlorophenyl)-N-(2,2-dimethyl-propyl)-N-methyl-1-[(3-methyl-3H-imidazole-4-yl)-methyl]-5-(trifluoromethyl)-1H-pyrrole-2-carboxylic acid amide] was tested. Which inhibition at 3 µM did it give?
A: 75 to 95%

Q: With `CN(CC(C)(C)C)C(=O)c1c(-c2ccc(Cl)cc2)cc(C(F)(F)F)n1Cc1nncn1C` [Example 027, 3-(4-Chlorophenyl)-N-(2,2-dimethyl-propyl)-N-methyl-1-[(4-methyl-4H-[1,2,4]triazol-3-yl)-methyl]-5-(trifluoromethyl)-1H-pyrrole-2-carboxylic acid amide] as the molecule, how does the inhibition at 3 µM read?
A: 40 to 75%

Q: For `CN(CC(C)(C)C)C(=O)c1c(-c2ccc(Cl)cc2)cc(C(F)(F)F)n1Cc1ncn(C)n1` [Example 013, 3-(4-Chlorophenyl)-N-(2,2-dimethyl-propyl)-N-methyl-1-[(1-methyl-1H-[1,2,4]triazol-3-yl)-methyl]-5-(trifluoromethyl)-1H-pyrrole-2-carboxylic acid amide], which inhibition at 3 µM is on record?
A: 75 to 95%

Q: With `CN(CC(C)(C)C)C(=O)c1c(-c2ccc(Cl)cc2)cc(C(F)(F)F)n1Cc1ccnn1C` [Example 008, 3-(4-Chlorophenyl)-N-(2,2-dimethyl-propyl)-N-methyl-1-[(2-methyl-2H-pyrazol-3-yl)-methyl]-5-(trifluoromethyl)-1H-pyrrole-2-carboxylic acid amide] as the molecule, how does the inhibition at 3 µM read?
A: 75 to 95%

Q: How did the inhibition at 3 µM turn out when `Cc1c(-c2ccc(Cl)cc2)c(C(=O)N2CCOCC2)n(Cc2cccc(=O)[nH]2)c1C(F)(F)F` [Example 054, 6-[[3-(4-Chlorophenyl)-4-methyl-2-(morpholine-4-carbonyl)-5-(trifluoromethyl)-1H-pyrrol-1-yl]-methyl]-1H-pyridin-2-one] was run?
A: 75 to 95%

Q: For `Cc1noc(Cn2c(C(=O)N(C)CCS(C)(=O)=O)c(-c3ccc(Cl)cc3)c(C)c2C(F)(F)F)n1` [Example 015, 3-(4-Chlorophenyl)-N,4-dimethyl-1-[(3-methyl-[1,2,4]oxadiazol-5-yl)-methyl]-N-(2-methylsulfonyl-ethyl)-5-(trifluoromethyl)-1H-pyrrole-2-carboxylic acid amide], which inhibition at 3 µM is on record?
A: 75 to 95%

Q: For `Cc1c(-c2ccc(Cl)cc2)c(C(=O)N2CCOCC2)n(Cc2ccnn2C)c1C(F)(F)F` [Example 016, [3-(4-Chlorophenyl)-4-methyl-1-[(2-methyl-2H-pyrazol-3-yl)-methyl]-5-(trifluoromethyl)-1H-pyrrol-2-yl]-morpholin-4-yl-methanone], which inhibition at 3 µM is on record?
A: 75 to 95%
